Laboratory results: patent US20230002324A1, “NAPHTHOQUINONE DERIVATIVES FOR TREATMENT OF OXIDATIVE STRESS DISORDERS” (PTC THERAPEUTICS, INC., priority 2019, published 2023)

Test system: Q7 cells (ST HDH Q7/7; immortalized mouse striatal cells)
Experiment: Q7 Cystine Deprivation cell survival (rescue) assay
Assay type: cell-based
Conditions: 18 h, read-out: Q7 Cystine Deprivation Survival EC50
Description: In neuronal cells excess extracellular glutamate inhibits the cystine/glutamate antiporter leading to intracellular cysteine depletion, GSH depletion, reactive oxygen species (ROS) production and cell death, a phenomenon termed oxidative glutamate toxicity, oxytosis, or ferroptosis. […] Q7 cells (ST HDH Q7/7; immortalized mouse striatal cells) challenged with cystine-free media or the selective, irreversible GPX4 inhibitor, methyl (1S,3R)-2-(2-chloroacetyl)-1-(4-(methoxycarbonyl)phenyl)-2,3,4,9-tetrahydro-1H-pyrido[3,4-b]indole-3-carboxylate (hereafter referred to as RSL3), recapitulate this phenotype, as do normal human fibroblasts (NHF) challenged with RSL3. An initial screen was performed to identify compounds effective in rescuing Q7 and/or NHF cells from death resulting from cystine deprivation or RSL3 challenge. This method is further described in Yonezawa et al., J. Neurochem 67, 566-573 (1996), Li et al., J Neurosci., 23, 5816-5826 (2003), Yang and Stockwell, Chem Biol., 15: 234-45 (2008), and Yang et al., Cell 156, 317-331 (2014). See also Hinman A, Holst C R, Latham J C, et al. Vitamin E hydroquinone is an endogenous regulator of ferroptosis via redox control of 15-lipoxygenase. PLoS One. 2018; 13(8):e0201369. Published 2018 Aug. 15. doi:10.1371/journal.pone.0201369; and Kahn-Kirby A H, Amagata A, Maeder C I, et al. Targeting ferroptosis: A novel therapeutic strategy for the treatment of mitochondrial disease-related epilepsy. PLoS One. 2019; 14(3):e0214250. Published 2019 Mar. 28. doi:10.1371/journal.pone.0214250.
DMEM (Catalog no. 11995-040), DMEM without Cystine (Catalog no. 21013-024), DMEM without Glucose (Catalog A1443001), PBS (Phosphate buffered saline), Penicillin-streptomycin mix, L-Glutamine, Glucose, Phenol Red, and Pyruvate were purchased from ThermoFisher Scientific (Gibco). Fetal Bovine Serum was obtained from Mediatech, Inc., or Sigma Aldrich. Mouse striatum derived ST HDH Q7/7 (Q7) and normal human skin fibroblast (NHF, product number GM21811) cells were obtained from the Coriell Institute. Methionine and Vitamin K2 were purchased from Sigma Aldrich. RSL3 was synthesized as previously described (see e.g. US Patent Publication US2010/0081654). Cell Titer Glo 2.0 was purchased from Promega. Q7 cell culture medium (Q7 growth medium) was made by combining 50 mL Fetal Bovine Serum, 100 U/mL penicillin, and 100 microgram/mL streptomycin; DMEM was added to make the volume up to 500 mL. Assay medium for the Cystine Deprivation assay was prepared by combining 50 mL Fetal Bovine Serum, 100 U/mL penicillin, 100 microgram/mL streptomycin, 4 mM L-Glutamine, 1 mM Pyruvate and 30 mg/L Methionine; DMEM without Cystine was added to make the volume up to 500 mL. NHF cell culture medium (NHF growth medium) was made by combining 50 mL Fetal Bovine Serum, 100 U/mL penicillin, 100 microgram/mL streptomycin, 2.8 mL 20% Glucose solution (final concentration 6 mM), L-glutamine (final concentration 2 mM), phenol red (final concentration 15 mg/L); DMEM without Glucose was added to make the volume up to 500 mL. Assay medium for the RSL3 challenge assay was identical to Growth medium. While not in use during the course of the experiments, these solutions were stored at 4° C. The cells were grown in 150-cm^2 tissue culture-treated flasks. Every third or fourth day, the cells were sub-cultured by trypsinization and re-seeded at a cell density of 600,000 (Q7) or 300,000 (NHF) cells per flask.
Q7 or NHF cells were cultured routinely as described herein. For 384-well cell survival assays, cells were seeded in clear bottom, black wall 384-well tissue culture-treated polystyrene plates by re-suspending a cell suspension at a density of 50,000 cells/mL in growth medium, then dispensing 60 microliters of cell suspension per well using either an electronic multichannel pipette or a Multidrop™ Combi Reagent Dispenser (ThermoFisher Scientific), corresponding to 3,000 cells/well. […]

SMILES | EC50 [nM]
COc1cc2c(cc1OC)C(=O)C(Cc1ccc(C(F)(F)F)cn1)=C(C)C2=O [Example 41, 6,7-dimethoxy-2-methyl-3-((5-(trifluoromethyl)pyridin-2-yl)methyl)naphthalene-1,4-dione] | < 50

Same assay, conditions: Q7 cells, cystine-free medium, 18 h, Cell Titer Glo, 50% relative viability vs Vitamin K2 (1 micromolar), read-out: Q7 Cystine Deprivation Survival EC50

SMILES | EC50 [nM]
CC1=C(Cc2cc(C(F)(F)F)c(F)cn2)C(=O)c2ccccc2C1=O [Example 2, 2-((5-fluoro-4-(trifluoromethyl)pyridin-2-yl)methyl)-3-methylnaphthalene-1,4-dione] | < 50
CC1=C(Cc2cc(C)c(F)cn2)C(=O)c2ccccc2C1=O [Example 3, 2-((5-fluoro-4-methylpyridin-2-yl)methyl)-3-methylnaphthalene-1,4-dione] | < 50
CC1=C(Cc2cc(C)c(C(F)(F)F)cn2)C(=O)c2ccccc2C1=O [Example 4, 2-methyl-3-((4-methyl-5-(trifluoromethyl)pyridin-2-yl)methyl)naphthalene-1,4-dione] | < 50
CC1=C(Cc2ccc(C)nn2)C(=O)c2ccccc2C1=O [Example 5, 2-methyl-3-((6-methylpyridazin-3-yl)methyl)naphthalene-1,4-dione] | < 50
CC1=C(Cc2ccc(C)cn2)C(=O)c2ccccc2C1=O [Example 7, 2-methyl-3-((5-methylpyridin-2-yl)methyl)naphthalene-1,4-dione] | < 50
CC1=C(Cc2cccc(C(F)(F)F)n2)C(=O)c2ccccc2C1=O [Example 8, 2-methyl-3-((6-(trifluoromethyl)pyridin-2-yl)methyl)naphthalene-1,4-dione] | < 50
CC1=C(Cc2ccc(C(F)(F)F)nn2)C(=O)c2ccccc2C1=O [Example 10, 2-methyl-3-((6-(trifluoromethyl)pyridazin-3-yl)methyl)naphthalene-1,4-dione] | < 50
CC1=C(Cc2cc(C(F)(F)F)cnn2)C(=O)c2ccccc2C1=O [Example 11, 2-methyl-3-((5-(trifluoromethyl)pyridazin-3-yl)methyl)naphthalene-1,4-dione] | < 50
CC1=C(Cc2cccnn2)C(=O)c2ccccc2C1=O [Example 12, 2-methyl-3-(pyridazin-3-ylmethyl)naphthalene-1,4-dione] | < 50
CC1=C(Cc2cc(C)c(C)nn2)C(=O)c2ccccc2C1=O [Example 13, 2-((5,6-dimethylpyridazin-3-yl)methyl)-3-methylnaphthalene-1,4-dione] | < 50
CC1=C(Cc2ccc(C(N)=O)nn2)C(=O)c2ccccc2C1=O [Example 14, 6-((3-methyl-1,4-dioxo-1,4-dihydronaphthalen-2-yl)methyl)pyridazine-3-carboxamide] | < 50
CC1=C(Cc2cc(C)cnn2)C(=O)c2ccccc2C1=O [Example 15, 2-methyl-3-((5-methylpyridazin-3-yl)methyl)naphthalene-1,4-dione] | < 50
CCOc1cnnc(CC2=C(C)C(=O)c3ccccc3C2=O)c1 [Example 16, 2-((5-ethoxypyridazin-3-yl)methyl)-3-methylnaphthalene-1,4-dione] | < 50
COc1nnc(CC2=C(C)C(=O)c3ccccc3C2=O)cc1C(F)(F)F [Example 17, 2-((6-methoxy-5-(trifluoromethyl)pyridazin-3-yl)methyl)-3-methylnaphthalene-1,4-dione] | < 50
COc1nnc(CC2=C(C)C(=O)c3ccccc3C2=O)cc1C [Example 18, 2-((6-methoxy-5-methylpyridazin-3-yl)methyl)-3-methylnaphthalene-1,4-dione] | > 1000
CC1=C(Cc2ncc(C(F)(F)F)cn2)C(=O)c2ccccc2C1=O [Example 19, 2-methyl-3-((5-(trifluoromethyl)pyrimidin-2-yl)methyl)naphthalene-1,4-dione] | < 50

SMILES | EC50 [nM]
O=C1C=C(Cc2ccc(C(F)(F)F)cn2)C(=O)c2ccccc21 [Example 25, 2-((5-(trifluoromethyl)pyridin-2-yl)methyl)naphthalene-1,4-dione] | 250 to 1000
CC(C)CCC1=C(Cc2ccc(C(F)(F)F)cn2)C(=O)c2ccccc2C1=O [Example 34, 2-isopentyl-3-((5-(trifluoromethyl)pyridin-2-yl)methyl)naphthalene-1,4-dione] | 50 to 250
COc1ccc2c(c1)C(=O)C(Cc1ccc(C(F)(F)F)cn1)=C(C)C2=O [Example 36, 6-methoxy-2-methyl-3-((5-(trifluoromethyl)pyridin-2-yl)methyl)naphthalene-1,4-dione] | < 50
COc1ccc2c(c1)C(=O)C(C)=C(Cc1ccc(C(F)(F)F)cn1)C2=O [Example 37, 6-methoxy-3-methyl-2-((5-(trifluoromethyl)pyridin-2-yl)methyl)naphthalene-1,4-dione] | < 50
Cc1ccc(CC2=C(C3CC3)C(=O)c3ccccc3C2=O)nc1 [Example 38, 2-cyclopropyl-3-((5-methylpyridin-2-yl)methyl)naphthalene-1,4-dione] | < 50
COc1cccc2c1C(=O)C(C)=C(Cc1ccc(C(F)(F)F)cn1)C2=O [Example 40, 5-methoxy-3-methyl-2-((5-(trifluoromethyl)pyridin-2-yl)methyl)naphthalene-1,4-dione] | < 50
CC1=C(Cc2ccc(C(F)(F)F)cn2)C(=O)c2cc(F)ccc2C1=O [Example 45, 6-fluoro-2-methyl-3-((5-(trifluoromethyl)pyridin-2-yl)methyl)naphthalene-1,4-dione] | < 50
CC1=C(Cc2ccc(C(F)(F)F)cn2)C(=O)c2cccc(F)c2C1=O [Example 46, 5-fluoro-3-methyl-2-((5-(trifluoromethyl)pyridin-2-yl)methyl)naphthalene-1,4-dione] | < 50
CCCC1=C(Cc2ccc(Cl)cn2)C(=O)c2ccccc2C1=O [Example 106, 2-((5-chloropyridin-2-yl)methyl)-3-propylnaphthalene-1,4-dione] | < 50
CCCC1=C(Cc2ccc(C(F)(F)F)nn2)C(=O)c2ccccc2C1=O [Example 107, 2-propyl-3-((6-(trifluoromethyl)pyridazin-3-yl)methyl)naphthalene-1,4-dione] | < 50
CCCC1=C(Cc2ncc(C(F)(F)F)cc2F)C(=O)c2ccccc2C1=O [Example 108, 2-((3-fluoro-5-(trifluoromethyl)pyridin-2-yl)methyl)-3-propylnaphthalene-1,4-dione] | 50 to 250
CCCC1=C(Cc2cc(C#N)c(F)cn2)C(=O)c2ccccc2C1=O [Example 110, 2-((1,4-dioxo-3-propyl-1,4-dihydronaphthalen-2-yl)methyl)-5-fluoroisonicotinonitrile] | < 50
CCCC1=C(Cc2ncc(F)cc2C)C(=O)c2ccccc2C1=O [Example 111, 2-((5-fluoro-3-methylpyridin-2-yl)methyl)-3-propylnaphthalene-1,4-dione] | 50 to 250
CCCC1=C(Cc2ccc(F)c(C#N)n2)C(=O)c2ccccc2C1=O [Example 112, 6-((1,4-dioxo-3-propyl-1,4-dihydronaphthalen-2-yl)methyl)-3-fluoropicolinonitrile] | < 50
CCCC1=C(Cc2ccc(C)cn2)C(=O)c2ccccc2C1=O [Example 115, 2-((5-methylpyridin-2-yl)methyl)-3-propylnaphthalene-1,4-dione] | < 50
CCCC1=C(Cc2ncc(F)cc2F)C(=O)c2ccccc2C1=O [Example 117, 2-((3,5-difluoropyridin-2-yl)methyl)-3-propylnaphthalene-1,4-dione] | < 50
